Tests used:
[1] = In vivo detection of ICG sponge in canine surgical site, 780 nm laser; design: species or system dog; settings: FIG. 7
Experimental: Method: A stray female dog (Doberman […]) underwent an ovariohysterectomy procedure. After making an incision in the dog's abdomen, a standard 4×4 surgical gauze was placed inside the surgical site and allowed to become saturated with blood. A 780 nm laser was focused on a portion of the gauze and the area photographed and observed for excitation. This experiment was repeated using a sponge soaked in 1 mM ICG dye solution for 1 hr and a sponge soaked in 1 mM ICG dye solution for 24 hrs. Prior to in vivo use, the sponges first underwent sterilization: Steam sterilization at 350° F. for 20 min and gas sterilization in ethylene oxide for 12-24 hr.

[2] = NIR dye leaching from sponges: fluorescence of canine blood samples; settings: for fluorescence of test canine blood sample (ICG leaching): blood and DMSO in a 1:3 ratio

fluorescence of test canine blood sample (ICG leaching) ([2]; 1 hr after sponge placement): no fluorescence | fluorescence of test canine blood sample (ICG leaching) ([2]; 4 hours after sponge placement): no fluorescence | fluorescence wavelength in control canine blood sample ([2]; canine blood spiked with 0.1 mM solution of ICG in DMSO, FIG. 8): 815 nm
Compound: CC1(C)C(/C=C/C=C/C=C/C=C2\N(CCCCS(=O)(=O)O)c3ccc4ccccc4c3C2(C)C)=[N+](CCCCS(=O)(=O)[O-])c2ccc3ccccc3c21 [ICG, indocyanine green]
fluorescence of sponge soaked for 24 hrs compared to sponge soaked for 1 hr ([1]; 1 mM ICG dye solution): increase in florescence | fluorescence of treated sponge compared to the untreated sponge ([1]; sponge treated with 1 mM ICG solution): significant increase in the fluorescence

Reference: patent US20170303817A1, “SURGICAL ARTICLES AND METHODS FOR DETECTION” (GEORGIA STATE UNIVERSITY RESEARCH FOUNDATION, INC., priority 2014, published 2017)
